Assays:
N2a-APPsw cells [1] = experiment: Cellular Aβ production in N2a-APPsw cells (Aβ40 ELISA of conditioned medium); assay type: cell-based, mouse
Protocol: Quantification of β-Amyloid40, Neuro-2a cell stably overexpressing APPsw695 was used for detecting of β-Amyloid40. N2a-APPsw cells were grown in Dulbecco's Modified Eagle's medium (DMED) containing 10% fetal bovine serum, 100 U/mL penicillin, and 100 μg/mL streptomycin (GibcoBUR) with 80 μg/mL G418. Cells were cultured in 24-well plates one day before treatment. Transient transfections were done using FeGENE6 (Roche), fresh Optimum medium (Invitrogen) were supplied 5 h after transfection. Same concentration purified Apolipoprotein was added into the fresh medium. Conditioned medium was collected 24 h later. Aβ40 was quantified with sandwich ELISA by using Aβ40 ELISA Kit (Biosource). At least three times assays were done for each condition.
Cellular Aβ40 production. Neuroblastoma N2a-APPsw cells (from Dr. Riqiang Yan, Lerner Research Institute, Cleveland, Ohio) were cultured in 24-well plates in Dulbecco's Modified Eagle's medium (DMED) containing 10% fetal bovine serum, 100 U/mL penicillin, and 100 μg/mL streptomycin (GibcoBUR) with 80 μg/mL G418 one day before use. Transient transfections were done using FeGENE6 (Roche), fresh Optimum medium (Invitrogen) were supplied 5 h after transfection. Apolipoproteins were added in the fresh medium at 10 μg/mL. Conditioned medium was collected 24 h later. Aβ40 was determined in tripcates using Aβ40 ELISA Kit (Biosource). For studying the effect of PTB domain on Aβ production, N2a-APPsw cells were transfected with (0.4 μg/per well for 24 well plate) of PTB-containing vector before subjected to the above procedure.

[2] = system: N2a-APPsw cells transfected with ApoER2 and β-secretase; experiment: Internalization of cell surface proteins (biotinylation, Western blot); assay type: cell-based, mouse; details: Western blot of conditioned medium (FIG. 6D)
N2a-APPsw cells [3] = experiment: Cellular Aβ production in N2a-APPsw cells (Aβ40 ELISA of conditioned medium); assay type: cell-based, mouse; remark: listed apart in the source
[4] = system: N2a-APPsw cells transfected with ApoER2 and β-secretase; experiment: Internalization of cell surface proteins (biotinylation, Western blot); assay type: cell-based, mouse
Protocol: Internalization of cell surface proteins. N2a-APPsw cells were transiently tranfected with ApoER2 and β-secretase with Lipfectamine 2000. […] Cells were then placed on ice, rinsed in cold PBS and incubated in PBS containing 1.5 mg/mL sulfo-NHS-LC-biotin (Pierce) for 20 min at 4° C. Cells were rinsed twice in PBS and lysed in 800 μl PBS containing 0.1% SDS, 1% NP40 and a complete protease inhibitor cocktail. Total protein concentration was determined by immunoblotting from an aliquot of 50 μl cell lysate. Biotinylated proteins were recovered with NeutrAvidin agarose (50 μl; Pierce), rinsed three times, eluted in 20 μl SDS-sample buffer at boiling temperature and used for Western-blot. Quantity of bands was determined by optical scanning instruments specified above. For the determination of internalized proteins, cells were prepared as above, rinsed in PBS and then incubated with cold 1.5 mg/mL cleavable biotin reagent in PBS (EZ-Link Sulfo-NHS-SS biotin, Pierce) for 20 min at 4° C. […] Cells were then lysed in 800 μl PBS containing 0.1% SDS, 1% NP40 and a complete protease inhibitor cocktail. After centrifugation, biotinylated proteins were retrieved by incubation with NeutrAvidin agarose (50 μl; Pierce). Isolated proteins were rinsed in buffer three times and boiled in 20 μl sample buffer for Western blots.

[5] = target: LDL (low-density lipoprotein) lipid receptor (Homo sapiens, UniProt P01130); details: cited from earlier work
[6] = 10 μg/mL, internalization 15 min at 37° C. (FIG. 6B)

LDL (low-density lipoprotein) lipid receptor, sequence (P01130 22-860): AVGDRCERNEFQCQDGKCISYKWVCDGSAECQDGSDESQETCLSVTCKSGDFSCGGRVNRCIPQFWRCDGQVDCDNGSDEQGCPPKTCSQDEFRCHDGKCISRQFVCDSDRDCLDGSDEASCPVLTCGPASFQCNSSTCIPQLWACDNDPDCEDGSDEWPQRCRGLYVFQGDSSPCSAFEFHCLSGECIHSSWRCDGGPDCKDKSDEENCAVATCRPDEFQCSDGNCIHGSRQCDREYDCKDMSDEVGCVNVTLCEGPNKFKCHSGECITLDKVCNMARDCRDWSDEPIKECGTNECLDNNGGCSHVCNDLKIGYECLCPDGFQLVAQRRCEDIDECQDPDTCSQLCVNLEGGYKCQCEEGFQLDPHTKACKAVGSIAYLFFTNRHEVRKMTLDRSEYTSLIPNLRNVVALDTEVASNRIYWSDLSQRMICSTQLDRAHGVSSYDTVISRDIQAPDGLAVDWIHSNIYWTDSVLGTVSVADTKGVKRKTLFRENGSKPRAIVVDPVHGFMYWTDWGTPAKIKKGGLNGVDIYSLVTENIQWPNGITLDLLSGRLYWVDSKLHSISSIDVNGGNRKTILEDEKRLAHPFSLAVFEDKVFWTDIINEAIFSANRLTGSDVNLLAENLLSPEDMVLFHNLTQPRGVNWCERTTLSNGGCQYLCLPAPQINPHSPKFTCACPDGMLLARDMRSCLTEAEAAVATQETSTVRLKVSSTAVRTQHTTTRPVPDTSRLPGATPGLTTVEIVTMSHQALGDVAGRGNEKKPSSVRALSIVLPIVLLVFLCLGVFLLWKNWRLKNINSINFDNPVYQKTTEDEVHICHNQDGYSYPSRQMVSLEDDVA

Q: With “ApoE4: ApoE isoform with arginine substituted for cysteine at residue 112; from Biodesign / Alpha Diagnostic” as the substance, how does the “Aβ production in cells transfected with ApoER2 versus without” value (N2a-APPsw cells [1]; N2a-APPsw cells (FIG. 5D)) read?
A: produced more Aβ

Q: And the “Aβ40 and Aβ42 production, ApoE4 in native human VLDL versus ApoE2 and ApoE3” value (N2a-APPsw cells [1]; VLDL from individual human plasma, N2a-APPsw cells (FIG. 5C))?
A: stimulates higher Aβ production

Q: And the Aβ production (N2a-APPsw cells [1]; recombinant ApoE forms at 10 μg/ml, N2a-APPsw cells (FIG. 5B))?
A: increased Aβ production (FIG. 5B) with the highest response

Q: And the “APP ectodomain generated by ∝-secretase, s∝-APP” value [2]?
A: reduction

Q: And the “Aβ40 increase in cells transfected with ApoER2 versus blank vectors” value (N2a-APPsw cells [3]; 5 μg/mL, N2a APPsw cells, p<0.05 (FIG. 4))?
A: increase of Aβ40 at a greater extent

Q: And the “Aβ40 levels in medium” value (N2a-APPsw cells [3]; 5 μg/mL, blank vector transfected N2a APPsw cells vs control (FIG. 4))?
A: increased over that in the control cells

Q: What about the Aβ production (N2a-APPsw cells [3]; each at 5 μg/mL, 24 h, N2a-APPsw cells (FIG. 5B legend)) of the same substance?
A: increased Aβ production

Q: And the “total amounts of ApoER2, APP and β-secretase in the cell lysates” value ([4]; 10 μg/mL, 2 h)?
A: remained about the same

Q: What about the “decrease of remaining cell-surface β-secretase” value ([4]; 10 μg/mL, 2 h, compared to controls (FIG. 6A)) of the same substance?
A: ~35%

Q: And the “increase of intracellular APP” value [4, 6]?
A: ~4 fold

Q: And the “increase of intracellular ApoER2” value [4, 6]?
A: small increases

Q: And the “increase of intracellular β-secretase” value [4, 6]?
A: small increases

Q: What about the “intracellular APP C-terminal fragment C99” value ([4]; Western blot, over the control (FIG. 6C)) of the same substance?
A: significantly increased

Q: What about the “normal receptor binding activity” value [5] of the same substance?
A: 100%

Reference: patent publication US20070248599A1 (priority 2006, published 2007)
